ChEMBL document CHEMBL5108004, “An auristatin-based peptide-drug conjugate targeting Kita-Kyushu lung cancer antigen 1 for precision chemoradiotherapy in gastric cancer” (Eur J Med Chem, 2022)
pIC50: −log10 of the molar value. Active and inactive are the calls of the source. No cut-off for these calls is given here. *1 amine or outer side, *2 acyl side, *3 side chain or, on linkers, in order; H or OH if unused. Where a SMILES comes first, the peptide text is derived from it. Bridges are numbered along the chain shown (N, C = ends). Roman numbers before positions name the chains, in order. [ ]: non-standard residue; d: D form. The star is where a group is joined. Hexanoyl(6-succinimido-3yl) = O=C1CC([*:1])C(=O)N1CCCCCC(=O)[*:2]; Dolaproine = CO[C@@H]([C@@H]1CCCN1)[C@@H](C)C(=O)O; Dil = CC[C@H](C)[C@H](NC)[C@@H](CC(=O)O)OC; PABC = O=C(OCc1ccc(N[*:1])cc1)[*:2]; X1 = C[C@@H](N*)[C@@H](O)c1ccccc1; Cit = NC(=O)NCCC[C@H](N)C(=O)O; NMeV = CN[C@H](C(=O)O)C(C)C

Key:
[1] = biological target: T1, Kita-kyushu lung cancer antigen 1 (Homo sapiens) (UniProt Q5H943); assay: Binding affinity to recombinant KK-LC-1 (unknown origin) using FITC-labeled compound at 0.1 to 1000 uM incubated for 2 hrs and measured by FLISA assay; details: dose 0.1-1000 µM
T1 sequence (whole entry): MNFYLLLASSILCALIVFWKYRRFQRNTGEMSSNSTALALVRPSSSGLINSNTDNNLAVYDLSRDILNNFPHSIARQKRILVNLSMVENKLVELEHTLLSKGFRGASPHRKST

[2] = Drug uptake in KK-LC-1-positive human NUGC-4 cells using FITC-labeled compound at 100 uM incubated for 10 to 70 mins and assessed as drug internalization measured by DAPI staining method; format: ADME, cell-based; details: nugc-4, 100 µM, time 10-70 min
NUGC-4 [3] = assay: Cytotoxicity against KK-LC-1-positive human NUGC-4 cells incubated for 72 hrs by CCK-8 assay; format: functional, cell-based; details: NUGC-4, 72 h
MKN-45 [4] = assay: Cytotoxicity against KK-LC-1-positive human MKN-45 cells incubated for 72 hrs by CCK-8 assay; format: functional, cell-based; details: MKN-45, 72 h
[5] = Ratio IC50 for cytotoxicity against KK-LC-1-negative human HGC-27 cells to IC50 for cytotoxicity against KK-LC-1-positive human NUGC-4 cells
[6] = Ratio IC50 for cytotoxicity against KK-LC-1-negative human HGC-27 cells to IC50 for cytotoxicity against KK-LC-1-positive human MKN-45 cells
NUGC-4 [7] = assay: Cell cycle arrest in KK-LC-1-positive human NUGC-4 cells assessed as accumulation at G2/M phase at 20 nM measured after 24 hrs by propidium iodide staining based flow cytometric analysis (reference value: 21.5 +/- 0.7 %); format: functional
NUGC-4 [8] = assay: Cell cycle arrest in KK-LC-1-positive human NUGC-4 cells assessed as accumulation at G2/M phase at 40 nM measured after 24 hrs by propidium iodide staining based flow cytometric analysis (reference value: 21.5 +/- 0.7 %); format: functional
NUGC-4 [9] = assay: Cell cycle arrest in KK-LC-1-positive human NUGC-4 cells assessed as accumulation at G2/M phase at 100 nM measured after 24 hrs by propidium iodide staining based flow cytometric analysis (reference value: 21.5 +/- 0.7 %); format: functional
MKN-45 [10] = assay: Cell cycle arrest in KK-LC-1-positive human MKN-45 cells assessed as increase accumulation at G2/M phase at 20 to 100 nM measured after 24 hrs by propidium iodide staining based flow cytometric analysis; format: functional; details: dose 20-100 nM, DDE = dose-dependent effect
MKN-45 [11] = assay: Cell cycle arrest in KK-LC-1-positive human MKN-45 cells assessed as increase accumulation at G2/M phase at 100 nM measured after 0 to 48 hrs by propidium iodide staining based flow cytometric analysis; format: functional; details: time 0-48 hrs, TDE = time-dependent effect
MKN-45 [12] = assay: Inhibition of colony formation in KK-LC-1-positive human MKN-45 cells assessed as decrease in colonies incubated for 24 hrs followed by exposure to 2 Gy gamma irradiation by crystal violet staining based clonogenic assay; format: functional, cell-based
[13] = Stability in human plasma assessed as compound remaining at 500 uM measured after 8 hrs by HPLC analysis; format: ADME, cell-free; details: read-out: Stability
[14] = Stability in human plasma assessed as compound remaining at 500 uM measured after 48 hrs by HPLC analysis; format: ADME, cell-free; details: read-out: Stability
[15] = Stability in PBS at 37 degreeC measured after 48 hrs by HPLC analysis; format: physicochemical; details: buffer
[16] = Biodistribution in tumor of nude mouse xenografted with KK-LC-1-positive human NUGC-4 cells using Cy5-labeled compound at 10 nmol, iv and measured after 24 hrs by near-infrared imaging method; format: ADME, organism-based, Neoplasm; details: in vivo
[17] = Toxicity in male BALB/c nude mouse xenografted with KK-LC-1-positive human MKN-45 cells assessed as body weight loss at 1 mg/kg, iv administered twice a week for 3 weeks; format: organism-based; details: in vivo, 504 h
[18] = Toxicity in male BALB/c nude mouse xenografted with KK-LC-1-positive human MKN-45 cells assessed as effect on liver function at 0.3 mg/kg, iv administered twice a week for 3 weeks; format: organism-based; details: in vivo, 504 h
[19] = Toxicity in male BALB/c nude mouse xenografted with KK-LC-1-positive human MKN-45 cells assessed as effect on liver function at 1 mg/kg, iv administered twice a week for 3 weeks; format: organism-based; details: in vivo, 504 h
[20] = Toxicity in male BALB/c nude mouse xenografted with KK-LC-1-positive human MKN-45 cells assessed as effect on liver function at 2 mg/kg, iv administered twice a week for 3 weeks; format: organism-based; details: in vivo, 504 h
[21] = Toxicity in male BALB/c nude mouse xenografted with KK-LC-1-positive human MKN-45 cells assessed as effect on kidney function at 2 mg/kg, iv administered twice a week for 3 weeks; format: organism-based; details: in vivo, 504 h
[22] = Toxicity in male BALB/c nude mouse xenografted with KK-LC-1-positive human MKN-45 cells administered intravenously twice a week for 3 weeks; details: in vivo, route iv
MKN-45 [23] = assay: Antitumor activity against KK-LC-1-positive human MKN-45 cells xenografted in male BALB/c nude mouse assessed as induction of tumor regression at 0.3 mg/kg, iv administered twice a week for 3 weeks; format: functional, organism-based
MKN-45 [24] = assay: Antitumor activity against KK-LC-1-positive human MKN-45 cells xenografted in male BALB/c nude mouse assessed as induction of tumor regression at 1 mg/kg, iv administered twice a week for 3 weeks; format: functional, organism-based
MKN-45 [25] = assay: Antitumor activity against KK-LC-1-positive human MKN-45 cells xenografted in male BALB/c nude mouse assessed as induction of tumor regression at 2 mg/kg, iv administered twice a week for 3 weeks; format: functional, organism-based
MKN-45 [26] = assay: Antitumor activity against KK-LC-1-positive human MKN-45 cells xenografted in male BALB/c nude mouse assessed as reduction in tumor volume at 0.3 mg/kg, iv administered twice a week for 3 weeks; format: functional; design: scale not given: the % may be the effect or the level left
[27] = Toxicity in male BALB/c nude mouse xenografted with KK-LC-1-positive human MKN-45 cells assessed as increase in survival of mouse at 0.3 mg/kg, iv administered twice a week for 3 weeks; format: organism-based; details: in vivo, 504 h
NUGC-4 [28] = assay: Antitumor activity against KK-LC-1-positive human NUGC-4 cells xenografted in male BALB/c nude mouse assessed as reduction in tumor burden at 0.3 mg/kg, iv administered once a week for 3 weeks followed by exposure to 2 Gy gamma irradiation for 2 consecutive days once a week for 3 weeks; format: functional, organism-based
[29] = Toxicity in male BALB/c nude mouse xenografted with KK-LC-1-positive human NUGC-4 cells assessed as effect on body weight at 0.3 mg/kg, iv administered once a week for 3 weeks followed by exposure to 2 Gy gamma irradiation for 2 consecutive days once a week for 3 weeks; format: organism-based; details: in vivo, 504 h
[30] = Toxicity in male BALB/c nude mouse xenografted with KK-LC-1-positive human NUGC-4 cells assessed as median survival time at 0.3 mg/kg, iv administered once a week for 3 weeks; format: organism-based; details: in vivo, 504 h
NUGC-4 [31] = assay: Antitumor activity against KK-LC-1-positive human NUGC-4 cells xenografted in male BALB/c nude mouse assessed as decrease in Ki67 at 0.3 mg/kg, iv administered once a week for 3 weeks followed by exposure to 2 Gy gamma irradiation for 2 consecutive days once a week for 3 weeks measured by immunohistochemical staining analysis; format: functional, organism-based

With `CC[C@H](C)[C@@H]([C@@H](CC(=O)N1CCC[C@H]1[C@H](OC)[C@@H](C)C(=O)N[C@H](C)[C@@H](O)c1ccccc1)OC)N(C)C(=O)[C@@H](NC(=O)[C@@H](NC(=O)[C@H](C(C)C)N(C)C(=O)OCc1ccc(NC(=O)[C@H](CCCNC(N)=O)NC(=O)[C@@H](NC(=O)CCCCCN2C(=O)CC(SC[C@H](N)C(=O)N[C@H]3CSSC[C@@H](C(=O)O)NC(=O)[C@H]([C@@H](C)O)NC(=O)[C@H]([C@@H](C)O)NC(=O)[C@H](CC(C)C)NC(=O)[C@H](C)NC(=O)[C@H]([C@@H](C)O)NC(=O)[C@H](CC(N)=O)NC(=O)[C@H](CCCCN)NC3=O)C2=O)C(C)C)cc1)C(C)C)C(C)C` (stereo partly specified) (I: H-CCKNTALTTC-OH / II: V[Cit][PABC][NMeV]VV[Dil][Dolaproine]-X1; linker I:1-II:N via Hexanoyl(6-succinimido-3yl); disulfide I:2-I:10) the Activity [1] was “Active”, the Drug uptake [2] was “Active” and the pIC50 (NUGC-4 [3]) was 8.41. The pIC50 (MKN-45 [4]) was 8.28, the “Ratio IC50” value [5] was 100 and the “Ratio IC50” value [6] was 100. For the same molecule, the Activity (NUGC-4 [7]) was 30.9%, the Activity (NUGC-4 [8]) was 49.53% and the Activity (NUGC-4 [9]) was 67.4%. For the same molecule, the Activity (MKN-45 [10]) was “Dde”, the Activity (MKN-45 [11]) was “Tde” and the inhibition (MKN-45 [12]) was “Active”. The remaining at 8 h, 500 µM [13] was 42.5%, the remaining at 48 h, 500 µM [14] was 13.2% and the Stability [15] was “Stable”. For the same molecule, the Drug uptake [16] was “Active”, the Activity [17] was “Non-Toxic” and the Activity [18] was “Non-Toxic”. The Activity [19] was “Non-Toxic”, the Activity [20] was “Non-Toxic” and the Activity [21] was “Non-Toxic”. For the same molecule, the MTD at 504 h [22] was 2 mg/kg, the Activity (MKN-45 [23]) was “Active” and the Activity (MKN-45 [24]) was “Active”. For the same molecule, the Activity (MKN-45 [25]) was “Active”, the Activity (MKN-45 [26]) was 48.5% and the Activity [27] was “Non-Toxic”. The Activity (NUGC-4 [28]) was “Active”, the Activity [29] was “Non-Toxic” and the MST [30] was 40 days. The Activity (NUGC-4 [31]) was “Active”.
